# Patent US20140187548A1, “6 SUBSTITUTED IMIDAZOPYRAZINES FOR USE AS MPS-1 AND TKK INHIBITORS IN THE TREATMENT OF HYPERPROLIFERATIVE DISORDERS” (BAYER INTELLECTUAL PROPERTY GMBH, priority 2010, published 2014)
# Target: T1, human kinase Mps-1 (Homo sapiens, UniProt P33981)
# T1 construct: N-terminally GST-tagged human full length recombinant Mps-1 kinase; GST (N); purchased Invitrogen, Karslruhe, Germany PV4071
# T1 sequence (P33981 1-857): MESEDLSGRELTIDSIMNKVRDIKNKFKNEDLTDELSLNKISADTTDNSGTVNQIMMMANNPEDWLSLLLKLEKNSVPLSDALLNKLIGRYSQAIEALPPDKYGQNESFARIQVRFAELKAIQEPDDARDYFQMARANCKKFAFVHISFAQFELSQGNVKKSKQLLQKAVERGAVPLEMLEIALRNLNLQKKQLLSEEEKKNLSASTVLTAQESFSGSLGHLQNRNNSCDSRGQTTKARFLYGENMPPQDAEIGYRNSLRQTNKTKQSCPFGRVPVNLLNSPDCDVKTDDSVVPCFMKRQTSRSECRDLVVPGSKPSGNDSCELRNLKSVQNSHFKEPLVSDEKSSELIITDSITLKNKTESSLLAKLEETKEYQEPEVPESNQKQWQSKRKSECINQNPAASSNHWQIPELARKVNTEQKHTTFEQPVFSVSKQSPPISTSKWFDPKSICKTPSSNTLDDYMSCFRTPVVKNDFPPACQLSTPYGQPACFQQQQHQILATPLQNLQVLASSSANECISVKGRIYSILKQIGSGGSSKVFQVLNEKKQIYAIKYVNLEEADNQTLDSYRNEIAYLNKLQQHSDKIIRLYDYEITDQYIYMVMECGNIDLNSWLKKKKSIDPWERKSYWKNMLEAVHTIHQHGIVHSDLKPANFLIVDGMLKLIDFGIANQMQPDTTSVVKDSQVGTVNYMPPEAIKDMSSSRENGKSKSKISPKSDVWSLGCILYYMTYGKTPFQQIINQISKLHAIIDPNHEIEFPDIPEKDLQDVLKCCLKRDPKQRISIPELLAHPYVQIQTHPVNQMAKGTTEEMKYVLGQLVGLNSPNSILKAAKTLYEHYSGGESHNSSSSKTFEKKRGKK
# Assay: Mps-1 kinase assay (TR-FRET)
# Format: biochemical
# Conditions: N-terminally GST-tagged human full length recombinant Mps-1; 10 μM ATP; 1 μM peptide substrate; 15 min pre-incubation; 60 min at 22° C.
# Outline: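 TR-FRET read-out: after 1 h binding at 22° C, Eu-labelled anti-phospho-Ser/Thr antibody transfers to SA-XLent on the phosphorylated biotinylated peptide. The enzyme is GST-tagged full-length human Mps-1, typically about 1 nM final, in the linear range.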
row,SMILES,IC50
1,"CC(C)CNc1nc(-c2cc(Cl)cc(Cl)c2)cn2c(-c3ccc(C(=O)NC4CC4)cc3)cnc12 [Example 1-10, N-cyclopropyl-4-{6-(3,5-dichlorophenyl)-8-[(2-methylpropyl)amino]imidazo[1,2-a]pyrazin-3-yl}benzamide]",1110 nM
2,"CC(C)CNc1nc(-c2ccc(F)c(C(=O)NC(C)C)c2)cn2c(-c3ccc(C(=O)NC4CC4)cc3)cnc12 [Example 1-85, 5-{3-[4-(cyclopropyl-carbamoyl)phenyl]-8-[(2-methylpropyl)amino]imidazo[1,2-a]pyrazin-6-yl}-2-fluoro-N-(propan-2-yl)benzamide]",2.6 nM
3,"CC(C)CNc1nc(-c2ccc(OCC(C)C)cc2)cn2c(-c3ccc(C(=O)NC4CC4)cc3)cnc12 [Example 1-81, N-cyclopropyl-4-{6-[4-(2-methylpropoxy)phenyl]-8-[(2-methylpropyl)amino]imidazo[1,2-a]pyrazin-3-yl}benzamide]",347 nM
4,"O=C(NC1CC1)c1ccc(-c2cnc3c(NCCc4ccccc4)nc(-c4ccccc4)cn23)cc1 [Example 2-7, N-cyclopropyl-4-{6-phenyl-8-[(2-phenylethyl)amino]imidazo[1,2-a]pyrazin-3-yl} benzamide]",25 nM
5,"CC(C)CNc1nc(-c2ccc(C(F)(F)F)cc2)cn2c(-c3ccc(C(=O)NC4CC4)cc3)cnc12 [Example 1-36, N-cyclopropyl-4-{8-[(2-methylpropyl)amino]-6-[4-(trifluoromethyl)phenyl]imidazo[1,2-a]pyrazin-3-yl}benzamide]",30 nM
6,"CN(C)c1ccc(-c2cn3c(-c4ccc(C(=O)NC5CC5)c(Cl)c4)cnc3c(NCC(C)(C)O)n2)cc1 [Example 1-99, 2-chloro-N-cyclopropyl-4-{6-[4-(dimethylamino)phenyl]-8-[(2-hydroxy-2-methylpropyl)amino]imidazo[1,2-a]pyrazin-3-yl}benzamide]",31.1 nM
7,"CC(C)CNc1nc(-c2ccc(C3CC3)cc2)cn2c(-c3ccc(C(=O)NC4CC4)cc3)cnc12 [Example 7-1, N-cyclopropyl-4-[6-(4-cyclopropylphenyl)-8-(isobutylamino)imidazo[1,2-a]pyrazin-3-yl]benzamide]",31.8 nM
8,"CC(C)(O)CNc1nc(-c2ccc(F)cc2)cn2c(-c3ccc(C(=O)NC4CC4)c(F)c3)cnc12 [Example 1-115, N-cyclopropyl-2-fluoro-4-{6-(4-fluorophenyl)-8-[(2-hydroxy-2-methyl-propyl)amino]imidazo [1,2-a]pyrazin-3-yl} benzamide]",5.4 nM
9,"Cc1cc(-c2cnc3c(NCC4CCOCC4)nc(-c4ccc(F)cc4)cn23)ccc1C(=O)NC1CC1 [Example 10-14, N-cyclopropyl-4-{6-(4-fluorophenyl)-8-[(tetra-hydro-2H-pyran-4-ylmethyl)amino]imidazo [1,2-a]pyrazin-3-yl}-2-methylbenzamide]",3.3 nM
10,"O=C(NC1CC1)c1ccc(-c2cnc3c(NCCC(F)(F)F)nc(-c4ccccc4CO)cn23)cc1F [Example 1-114, N-cyclopropyl-2-fluoro-4-{6-[2-(hydroxymethyl)phenyl]-8-[(3,3,3-tri-fluoropropyl)amino]imidazo[1,2-a]pyrazin-3-yl}benzamide]",3.5 nM
11,"CC(C)CNc1nc(-c2ccc(Cl)c(C(=O)NC3CC3)c2)cn2c(-c3ccc(C(=O)NC4CC4)cc3)cnc12 [Example 1-84, 2-chloro-N-cyclopropyl-5-{3-[4-(cyclopropyl-carbamoyl)phenyl]-8-[(2-methylpropyl)amino]imidazo[1,2-a]pyrazin-6-yl}benzamide]",4.5 nM
12,"O=C(NC1CC1)c1ccc(-c2cnc3c(NCC4CCCCC4)nc(-c4ccccc4)cn23)cc1 [Example 2-66, 4-{8-[(Cyclohexylmethyl)amino]-6-phenylimidazo[1,2-a]pyrazin-3-yl}-N-cyclopropylbenzamide]",6.2 nM
13,"Cc1cccc(-c2cn3c(-c4ccc(C(=O)NC5CC5)cc4)cnc3c(NCC(C)C)n2)c1C [Example 1-9, N-cyclopropyl-4-{6-(2,3-dimethylphenyl)-8-[(2-methylpropyl)amino]imidazo[1,2-a]pyrazin-3-yl}benzamide]",2.4 nM
14,"O=C(NC1CC1)c1ccc(-c2cnc3c(NCC4CCCO4)nc(-c4ccccc4)cn23)cc1 (stereo not shown) [Example 2-8, N-cyclopropyl-4-{6-phenyl-8-[(tetrahydrofuran-2-ylmethyl)amino]imidazo[1,2-a]pyrazin-3-yl}benzamide]",2.1 nM
15,"CNC(=O)c1cccc(-c2cn3c(-c4ccc(C(=O)NC5CC5)cc4)cnc3c(NCC(C)C)n2)c1 [Example 1-33, 3-{3-[4-(cyclopropyl-carbamoyl)phenyl]-8-[(2-methylpropyl)amino]imidazo[1,2-a]pyrazin-6-yl}-N-methylbenzamide]",1.4 nM
16,"COc1cccc(-c2cn3c(-c4ccc(C(=O)NC5CC5)cc4)cnc3c(NCC(C)C)n2)c1OC [Example 1-17, N-cyclopropyl-4-{6-(2,3-dimethoxyphenyl)-8-[(2-methylpropyl)amino]imidazo[1,2-a]pyrazin-3-yl}benzamide]",14.4 nM
17,"O=C(NC1CC1)c1ccc(-c2cnc3c(NCCN4CCNC4=O)nc(-c4ccccc4)cn23)cc1 [Example 2-47, N-cyclopropyl-4-(8-{[2-(2-oxoimidazolidin-1-yl)ethyl]amino}-6-phenylimidazo[1,2-a]pyrazin-3-yl)benzamide]",20 nM
18,"O=C(NC1CC1)c1ccc(-c2cnc3c(NC[C@@H](O)CO)nc(-c4ccccc4)cn23)cc1 [Example 2-81, N-cyclopropyl-4-(8-{[(2R)-2,3-dihydroxypropyl]amino}-6-phenylimidazo[1,2-a]pyrazin-3-yl)benzamide]",1.9 nM
19,"O=C(NC1CC1)c1ccc(-c2cnc3c(NCCCN4CCCC4=O)nc(-c4ccccc4)cn23)cc1 [Example 2-9, N-cyclopropyl-4-(8-{[3-(2-oxopyrrolidin-1-yl)propyl]amino}-6-phenylimidazo[1,2-a]pyrazin-3-yl)benzamide]",4.8 nM
20,"CC(C)(O)CNc1nc(-c2ccccc2CO)cn2c(-c3ccc(C(=O)NC4CC4)c(F)c3)cnc12 [Example 1-116, N-cyclopropyl-2-fluoro-4-{6-[2-(hydroxymethyl)phenyl]-8-[(2-hydroxy-2-methylpropyl)amino]imidazo[1,2-a]pyrazin-3-yl}benzamide]",34.7 nM
21,"CC(C)CNc1nc(-c2cccc3[nH]ccc23)cn2c(-c3ccc(C(=O)NC4CC4)cc3)cnc12 [Example 1-22, N-cyclopropyl-4-{6-(1H-indol-4-yl)-8-[(2-methyl-propyl)amino]imidazo [1,2-a]pyrazin-3-yl} benzamide]",2.6 nM
22,"O=C(NC1CC1)c1ccc(-c2cnc3c(NCc4cccs4)nc(-c4ccccc4)cn23)cc1 [Example 2-77, N-cyclopropyl-4-{6-phenyl-8-[(2-thienylmethyl)amino]imidazo[1,2-a]pyrazin-3-yl}benzamide]",2.5 nM
23,"O=C(NC1CC1)c1ccc(-c2cnc3c(NCCc4cccnc4)nc(-c4ccccc4)cn23)cc1 [Example 2-50, N-cyclopropyl-4-(6-phenyl-8-{[2-(pyridin-3-yl)ethyl]amino}imidazo[1,2-a]pyrazin-3-yl) benzamide]",8 nM
24,"O=C(NC1CC1)c1ccc(-c2cnc3c(NCc4ccccc4)nc(-c4ccccc4)cn23)cc1 [Example 2-15, 4-[8-(benzylamino)-6-phenylimidazo[1,2-a]pyrazin-3-yl]-N-cyclopropyl-benzamide]",3.8 nM
25,"O=C(NC1CC1)c1ccc(-c2cnc3c(NCC4CCCO4)nc(-c4ccccc4CO)cn23)cc1Cl (stereo not shown) [Example 1-106, 2-chloro-N-cyclopropyl-4-{6-[2-(hydroxymethyl)phenyl]-8-[(tetrahydro-furan-2-ylmethyl)amino]imidazo[1,2-a]pyrazin-3-yl}benzamide]",56.2 nM
26,"CC(C)CNc1nc(-c2ccc(C(N)=O)cc2)cn2c(-c3ccc(C(=O)NC4CC4)cc3)cnc12 [Example 1-24, 4-{6-(4-carbamoylphenyl)-8-[(2-methylpropyl)amino]imidazo[1,2-a]pyrazin-3-yl}-N-cyclo-propylbenzamide]",1.1 nM
27,"NC(=O)CCNc1nc(-c2ccccc2)cn2c(-c3ccc(C(=O)NC4CC4)cc3)cnc12 [Example 2-42, 4-{8-[(3-amino-3-oxopropyl)amino]-6-phenylimidazo[1,2-a]pyrazin-3-yl}-N-cyclopropyl-benzamide]",5 nM
28,"O=C(NC1CC1)c1ccc(-c2cnc3c(NCc4ccsc4)nc(-c4ccccc4)cn23)cc1 [Example 2-74, N-cyclopropyl-4-{6-phenyl-8-[(3-thienylmethyl)amino]imidazo[1,2-a]pyrazin-3-yl}benzamide]",3.7 nM
